Measured values: patent US10864212B2, “Compositions and methods for treating retinal degradation” (University of Kentucky Research Foundation, priority 2013, dated 2020)
Entries after “also recorded” stand apart in the source; their conditions may differ.

Key:
Caspase-1 [1] = test: Western blot of Caspase-1 activation in primary human RPE cells transfected with Alu RNA; assay type: cell-based; conditions: for Caspase-1 activation / cleavage (p20) induced by Alu RNA: concentration not given; for Caspase-1 maturation caused by Alu RNA: 24 hours after Alu administration, 50-100 uM, FIG. 7
Protocol: The bottom row is a vinculin loading control. […]
FIG. 7 is a Western blot showing that Alu RNA causes Caspase-1 maturation in primary human RPE cells at 24 hours after Alu administration (top, middle lane, lower band), which is blocked with co-treatment with azidothymidine (AZT), cordycepin, and abacavir (ABC) (50-100 uM; lanes 3-8 from left). The loading control vinculin is shown on the bottom.
FIG. 21 is a Western blot of Caspase-1 activation (p20 subunit) in primary human RPE cells transfected with Alu RNA±me-d4T.
FIG. 35 is a Western blot of Caspase-1 activation in human RPE cells transfected with Alu RNA±NRTIs (3TC, AZT, ABC).
The bottom row in FIG. 5 is a vinculin loading control. […]
Next, FIG. 7 provides evidence of AZT, cordycepin, and abacavir inhibition of inflammasome activation by Alu RNA. Indeed, Alu RNA causes NLRP3 inflammasome activation, which is marked by processing of the enzyme Caspase 1. FIG. 7 is a Western blot showing that Alu RNA causes Caspase-1 maturation in primary human RPE cells at 24 hours after Alu administration (top, lane 2, lower band), which is blocked with co-treatment with azidothymidine (AZT), cordycepin, and abacavir (ABC) (50-100 uM; Lanes 3-8). Again, the loading control vinculin is shown on the bottom.

IL-1 beta [2] = test: LPS/ATP-induced IL-1 beta activation in Raji TK- and TK+ cells (Western blot of cell lysates); assay type: cell-based; conditions: FIG. 41
Excerpt: (§1) To determine whether LPS/ATP-induced inflammasome activation can be inhibited without RT inhibition, the present inventors utilized thymidine kinase-deficient (Raji/TK^−) and -expressing (Raji/TK^+) cells (Balzarini et al., 1989). After addition of AZT, […], but not TK^− cells, the present inventors produced AZT-triphosphate (AZT-TP), the AZT metabolite required for RT inhibition (FIG. 40; FIG. 46, FIG. 47, FIG. 48, FIG. 49, FIG. 50).
(§2) FIGS. 38-41 illustrate that NRTIs block LPS/ATP-induced inflammasome activation. […] Representative images of n=3-4 experiments are provided in each of FIGS. 38-41.

human P2X7 receptor = target: T1, human P2X7 receptor (Homo sapiens, UniProt Q99572); test: bzATP-induced YO-PRO-1 dye uptake in HEK293 cells stably expressing the human P2X7 receptor; assay type: cell-based
T1 construct: expressed in transfected cells
T1 sequence (Q99572 1-595): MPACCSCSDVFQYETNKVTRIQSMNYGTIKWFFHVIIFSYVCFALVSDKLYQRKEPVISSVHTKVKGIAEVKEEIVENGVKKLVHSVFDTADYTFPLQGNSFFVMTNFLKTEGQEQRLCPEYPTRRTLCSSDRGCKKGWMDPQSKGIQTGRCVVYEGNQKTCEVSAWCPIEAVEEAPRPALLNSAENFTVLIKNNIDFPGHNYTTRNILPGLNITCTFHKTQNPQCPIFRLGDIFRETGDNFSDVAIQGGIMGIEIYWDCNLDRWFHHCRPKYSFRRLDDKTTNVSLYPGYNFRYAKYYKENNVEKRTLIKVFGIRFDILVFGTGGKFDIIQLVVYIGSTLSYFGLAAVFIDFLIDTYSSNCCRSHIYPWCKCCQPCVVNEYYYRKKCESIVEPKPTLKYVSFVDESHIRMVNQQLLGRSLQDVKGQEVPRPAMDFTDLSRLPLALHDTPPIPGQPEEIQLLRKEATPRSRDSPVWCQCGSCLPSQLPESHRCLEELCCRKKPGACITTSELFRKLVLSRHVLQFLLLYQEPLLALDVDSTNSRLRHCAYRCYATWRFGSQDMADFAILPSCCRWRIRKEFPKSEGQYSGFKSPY
Excerpt: Finally, P2X7 activation is associated with the formation of a large pore that is permeable to molecules of up to ˜1000 Da (Adinolfi et al., 2005; Cheewatrakoolpong et al., 2005; Surprenant et al., 1996).

[3] = test system: Raji TK^+ and Raji TK^− cells; test: Phosphorylation of AZT to AZT-triphosphate in Raji TK+ and TK- cells (LC-MS); assay type: in vitro ADME; conditions: FIG. 40, 50
Excerpt: FIG. 50 is a standard curve of AZT-TP standards (black circle).
as §1
FIG. 50 is a standard curve of AZT-TP standards (black circle). […] FIG. 50 is representative of two experiments.

RPE degeneration = RPE degeneration in mice after sub-retinal injection of a plasmid expressing Alu RNA, systemic drug administration; assay type: in vivo, mouse
Excerpt: FIG. 24, top row, provides flat mounts stained for zonula occludens-1 (ZO-1; red), bottom row. Degeneration is outlined if FIG. 24 by blue arrowheads. Representative images of n=4 are shown.
FIG. 36 and FIG. 37 include fundus photographs: top row; flat mounts stained for zonula occludens-1 (ZO-1; red), bottom row. Degeneration is outlined by blue arrowheads. Scale bars, 50 μm.

IL-18 = test: LPS/ATP-induced IL-18 maturation in mouse bone marrow-derived macrophages (Western blot); assay type: cell-based; conditions: supernatants, 100 uM, FIG. 9
Excerpt: (§3) To produce FIG. 9, cell culture supernatants were collected after (i) no treatment, (ii) LPS treatment, or (iii) LPS/ATP treatment of mouse bone marrow-derived macrophages and run on Western blotting probing with antibodies for Caspase-1 and IL-18.

IL-1 beta [4] = test: MSU-induced IL-1 beta secretion from PMA-differentiated THP-1 monocytes (ELISA); assay type: cell-based, human; conditions: co-administration at 25-1000 uM, FIG. 11, 12
Excerpt: Human THP-1 monocytes were differentiated into macrophages with PMA.
To illustrate this, human THP-1 monocytes were differentiated into macrophages with PMA. Treatment with MSU increased IL-1 beta secretion compared to non-treated cells.

Caspase-1 [5] = test: LPS/ATP-induced Caspase-1 activation in mouse bone marrow-derived macrophages (Western blot); assay type: cell-based; conditions: mouse bone marrow-derived macrophages, supernatants; 100 uM; FIG. 9
Excerpt: as §3
Further, the present inventors also tested whether NRTIs blocked inflammasome activation by LPS/ATP, which is not known to signal via reverse transcriptase (Mariathasan et al., 2004; Mariathasan et al., 2006; Martinon et al., 2002).
as §2

[6] = test system: GFP-expressing lentivirus; test: Replication of a GFP-expressing lentivirus in HeLa cells; assay type: cell-based; conditions: FIG. 22
Excerpt: The present disclosure further provides the results of additional experiments in FIG. 21-FIG. 23.

Clc1ccc(C(c2ccc(Cl)cc2)n2cc[n+](CC(OCc3ccc(Cl)cc3Cl)c3ccc(Cl)cc3Cl)c2)cc1 (stereo not shown) [calmidazolium]
Caspase-1 activation / cleavage (p20) induced by Alu RNA (Caspase-1 [1]; FIG. 21, 34, 35, 51-53): not inhibited

Cc1cn([C@H]2C[C@H](N=[N+]=[N-])[C@@H](CO)O2)c(=O)[nH]c1=O [AZT, 3′-azido-2′,3′-dideoxythymidine]
Caspase-1 maturation caused by Alu RNA (Caspase-1 [1]): blocked
Caspase-1 activation / cleavage (p20) induced by Alu RNA (Caspase-1 [1]; FIG. 21, 34, 35, 51-53): block Caspase 1 activation by Alu RNA; also recorded: block Caspase-1 cleavage induced by Alu RNA
IL-1 beta activation by LPS/ATP (IL-1 beta [2]; Raji TK^+ cells): blocks IL-1 beta activation
IL-1 beta activation by LPS/ATP (IL-1 beta [2]; Raji TK^− cells): still blocks LPS/ATP-induced interleukin-1 beta secretion; also recorded: still inhibited LPS/ATP-induced interleukin-1 beta maturation; also recorded: blocks IL-1 beta activation
P2X7-dependent uptake of YO-PRO1 after addition of bzATP (human P2X7 receptor; human P2X7-overexpressing HEK293 stable cell line, concentration not given): inhibited P2X7-dependent uptake of the fluorescent dye YO-PRO1
Phosphorylation of AZT to AZT-triphosphate (AZT-TP) ([3]; Raji TK^+ cells): produced AZT-TP; also recorded: phosphorylate AZT to AZT-triphosphate (AZT-TP)
Phosphorylation of AZT to AZT-triphosphate (AZT-TP) ([3]; Raji TK^− (thymidine kinase-deficient) cells): is not phosphorylated; also recorded: AZT was not phosphorylated; also recorded: AZT-TP was not detectable; also recorded: but not Raji TK^− cells
RPE degeneration caused by pAlu (RPE degeneration; intraperitoneal administration of AZT, FIG. 37): prevent RPE degeneration; also recorded: prevented

Nc1ncnc2c1ncn2[C@@H]1O[C@H](CO)C[C@H]1O [cordycepin]
Caspase-1 maturation caused by Alu RNA (Caspase-1 [1]): blocked
IL-18 maturation induced by LPS/ATP (IL-18): inhibit
IL-1 beta secretion induced by MSU (IL-1 beta [4]): did not significantly affect IL-1beta secretion
Caspase-1 activation (active p20 band) induced by LPS/ATP (Caspase-1 [5]): inhibit

COC[C@@H]1C=C[C@H](n2cc(C)c(=O)[nH]c2=O)O1 [me-d4T, 5′-OCH3-d4T]
Caspase-1 activation / cleavage (p20) induced by Alu RNA (Caspase-1 [1]; FIG. 21, 34, 35, 51-53): blocks Caspase-1 activation in human RPE cells
Caspase-1 activation / cleavage (p20) induced by Alu RNA (Caspase-1 [1]; FIG. 21, 34, 35, 51-53, listed as 5′-methoxy-d4T): block Caspase 1 activation by Alu RNA
Replication of a GFP-expressing lentivirus ([6]; HeLa cells): does not block lentivirus replication
Reverse transcriptase inhibition ([6]; confirmed by lentivirus replication): does not inhibit reverse transcriptase
Alu-induced RPE degeneration (RPE degeneration; me-d4T intraperitoneal injection, n=4, FIG. 24): prevents Alu-induced RPE degeneration in mice

Clc1cccc(-c2nnnn2Cc2cccnc2)c1Cl [A438079]
P2X7-mediated YO-PRO-1 dye uptake (fluorescence) induced by bzATP (human P2X7 receptor; bzATP 100 μM, 64 μM for both drugs, p<0.05, n=12, FIG. 43): inhibited
